As usually defined, the IC50 is the concentration at which inhibition is half-maximal.

In assay [1] the test system is LNCaP cells. Description: LNCaP cell viability assay (CellTiter-Glo). It counts as cell-based. The note with it: Homo sapiens, 72 h, LNCaP prostate cancer cell viability inhibition, 3 days. The gist of the method: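 Three-day treatment of LNCaP cells (5000 per well) across a 12-point, 3-fold dilution series starting at 10 μM. ATP luminescence (CellTiter-Glo) relative to untreated controls gave dose-response curves fitted nonlinearly for IC50.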
(Cellular ATP, detected with luciferase, serves as a proxy for viable cell number.)

The target in assay [2] is P300 (Homo sapiens, UniProt Q09472). Description: Immunoblotting of P300 protein levels in LNCaP or 22RV1 cells. As to conditions: read-out: Degradation (10 nM). Also on record: LNCaP or 22RV1 cells that express CBP/P300 proteins were treated with GNE-781 or the bivalent compounds; endogenous in cells; host or cells: LNCaP (clone FGC) or 22RV1 cells. It counts as cell-based. The gist of the method: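 P300/CBP levels quantified by chemiluminescent immunoblot band densitometry, normalized against tubulin or vinculin loading controls. Lysates came from LNCaP or 22RV1 cells exposed to compounds or DMSO vehicle for indicated times.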
P300, sequence (Q09472 whole entry): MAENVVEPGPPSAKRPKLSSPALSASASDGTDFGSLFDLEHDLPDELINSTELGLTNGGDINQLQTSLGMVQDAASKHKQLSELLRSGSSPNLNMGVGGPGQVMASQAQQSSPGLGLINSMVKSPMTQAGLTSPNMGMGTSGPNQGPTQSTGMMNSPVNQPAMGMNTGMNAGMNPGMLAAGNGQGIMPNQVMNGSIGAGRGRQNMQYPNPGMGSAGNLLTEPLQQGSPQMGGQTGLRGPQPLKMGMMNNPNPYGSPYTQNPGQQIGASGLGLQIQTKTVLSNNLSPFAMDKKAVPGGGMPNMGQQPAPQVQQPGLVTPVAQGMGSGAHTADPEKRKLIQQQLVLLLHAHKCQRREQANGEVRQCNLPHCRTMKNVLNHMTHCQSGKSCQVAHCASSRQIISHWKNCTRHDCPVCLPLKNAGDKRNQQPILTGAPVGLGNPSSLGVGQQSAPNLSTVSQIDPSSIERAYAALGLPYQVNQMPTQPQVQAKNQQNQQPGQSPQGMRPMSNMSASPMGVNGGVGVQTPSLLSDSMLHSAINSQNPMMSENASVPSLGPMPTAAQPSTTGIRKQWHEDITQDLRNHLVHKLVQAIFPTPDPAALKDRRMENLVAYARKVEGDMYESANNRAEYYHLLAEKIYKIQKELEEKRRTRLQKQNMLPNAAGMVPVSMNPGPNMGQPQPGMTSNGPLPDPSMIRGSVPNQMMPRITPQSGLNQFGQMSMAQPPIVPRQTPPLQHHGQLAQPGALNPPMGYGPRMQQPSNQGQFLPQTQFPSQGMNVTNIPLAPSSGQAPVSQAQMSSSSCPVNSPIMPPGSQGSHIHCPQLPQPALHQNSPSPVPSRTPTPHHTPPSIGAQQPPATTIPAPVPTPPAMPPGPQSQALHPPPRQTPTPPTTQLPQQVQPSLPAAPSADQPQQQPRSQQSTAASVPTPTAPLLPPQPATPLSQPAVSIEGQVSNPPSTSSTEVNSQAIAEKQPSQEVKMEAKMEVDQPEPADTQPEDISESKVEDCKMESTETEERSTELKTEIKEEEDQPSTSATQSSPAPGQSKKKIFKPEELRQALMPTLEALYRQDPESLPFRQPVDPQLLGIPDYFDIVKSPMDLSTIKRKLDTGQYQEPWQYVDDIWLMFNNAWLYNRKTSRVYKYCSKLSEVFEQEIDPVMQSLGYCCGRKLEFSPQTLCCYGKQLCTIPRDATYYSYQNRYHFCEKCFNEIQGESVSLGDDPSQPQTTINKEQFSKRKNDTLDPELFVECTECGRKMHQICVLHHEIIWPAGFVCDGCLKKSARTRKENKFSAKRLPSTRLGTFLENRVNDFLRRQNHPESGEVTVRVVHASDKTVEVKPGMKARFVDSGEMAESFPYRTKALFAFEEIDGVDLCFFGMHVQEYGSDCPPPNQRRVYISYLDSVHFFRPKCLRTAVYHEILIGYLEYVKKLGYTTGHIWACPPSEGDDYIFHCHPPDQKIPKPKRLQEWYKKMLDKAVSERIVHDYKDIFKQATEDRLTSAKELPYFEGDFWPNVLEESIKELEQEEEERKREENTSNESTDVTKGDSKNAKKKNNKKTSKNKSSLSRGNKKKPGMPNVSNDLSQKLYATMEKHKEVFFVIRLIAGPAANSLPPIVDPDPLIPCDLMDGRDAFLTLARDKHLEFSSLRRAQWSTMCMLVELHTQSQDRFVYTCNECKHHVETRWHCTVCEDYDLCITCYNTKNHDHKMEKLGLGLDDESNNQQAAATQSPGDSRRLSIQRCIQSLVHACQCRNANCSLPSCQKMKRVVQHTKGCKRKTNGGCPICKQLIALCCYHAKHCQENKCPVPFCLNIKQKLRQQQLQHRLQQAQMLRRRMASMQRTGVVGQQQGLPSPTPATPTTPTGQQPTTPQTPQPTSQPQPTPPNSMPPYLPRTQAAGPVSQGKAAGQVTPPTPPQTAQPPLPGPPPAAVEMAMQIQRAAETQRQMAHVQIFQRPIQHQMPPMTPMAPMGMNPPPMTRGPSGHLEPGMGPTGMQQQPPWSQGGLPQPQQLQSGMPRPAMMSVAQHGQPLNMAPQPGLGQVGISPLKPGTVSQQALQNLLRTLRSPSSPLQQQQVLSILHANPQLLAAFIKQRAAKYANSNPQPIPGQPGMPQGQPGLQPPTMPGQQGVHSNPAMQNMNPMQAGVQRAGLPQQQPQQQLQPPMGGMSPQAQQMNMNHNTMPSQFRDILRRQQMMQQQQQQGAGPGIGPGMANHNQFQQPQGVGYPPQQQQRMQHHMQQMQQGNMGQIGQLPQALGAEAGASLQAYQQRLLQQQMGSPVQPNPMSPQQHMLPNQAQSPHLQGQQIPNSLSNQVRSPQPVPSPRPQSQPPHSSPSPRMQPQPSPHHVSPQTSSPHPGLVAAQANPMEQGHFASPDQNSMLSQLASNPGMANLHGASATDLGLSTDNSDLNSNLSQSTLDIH
Background: In western blotting, separated proteins are transferred to a membrane and probed.

[3] abbreviates: percentage of inhibition of p300 at 10 nM (Table 2).
[4] abbreviates: percentage of inhibition of p300 at 10 nM (Table 3).

Where two headings read alike, the source gives them in different places.

Consider `CNC(=O)N1CCc2c(c(N3CCCc4cc(-c5cnn(CC(=O)NCCCCCCCC(=O)N[C@H](C(=O)N6C[C@H](O)C[C@H]6C(=O)NCc6ccc(-c7scnc7C)cc6)C(C)(C)C)c5)c(C(F)F)cc43)nn2C2CCOCC2)C1` [P-048, 3-(7-(Difluoromethyl)-6-(1-(2-((8-(((S)-1-((2S,4R)-4-hydroxy-2-((4-(4-methylthiazol-5-yl)benzyl)carbamoyl)pyrrolidin-1-yl)-3,3-dimethyl-1-oxobutan-2-yl)amino)-8-oxooctyl)amino)-2-oxoethyl)-1H-pyrazol-4-yl)-3,4-dihydroquinolin-1(2H)-yl)-N-methyl-1-(tetrahydro-2H-pyran-4-yl)-1,4,6,7-tetrahydro-5H-pyrazolo[4,3-c]pyridine-5-carboxamide], for which the IC50 in assay [1] (CellTiter-Glo (Table 2)) amounted to 471 nM. In assay [2] (setting [3]), the inhibition at 0.01 µM was under 20%.

Take `CNC(=O)N1CCc2c(c(N3CCCc4cc(-c5cnn(C)c5)c(C(F)F)cc43)nn2C2CCN(C(=O)CCOCCOCCOCCOCCC(=O)N[C@H](C(=O)N3C[C@H](O)C[C@H]3C(=O)NCc3ccc(-c4scnc4C)cc3)C(C)(C)C)CC2)C1` [P-070, 3-(7-(Difluoromethyl)-6-(1-methyl-1H-pyrazol-4-yl)-3,4-dihydroquinolin-1(2H)-yl)-1-(1-((S)-18-((2S,4R)-4-hydroxy-2-((4-(4-methylthiazol-5-yl)benzyl)carbamoyl)pyrrolidine-1-carbonyl)-19,19-dimethyl-16-oxo-4,7,10,13-tetraoxa-17-azaicosanoyl)piperidin-4-yl)-N-methyl-1,4,6,7-tetrahydro-5H-pyrazolo[4,3-c]pyridine-5-carboxamide]: in assay [1] (CellTiter-Glo (Table 3)), the IC50 worked out at 31.9 nM. The inhibition at 0.01 µM in assay [2] (setting [4]) is under 20%.

In the case of `CC(=O)N1CCc2c(c(N3CCCc4cc(-c5cnn(C)c5)c(C(F)F)cc43)nn2C2CCN(C(=O)CN3CCOC(CCNc4cccc5c4C(=O)N(C4CCC(=O)NC4=O)C5=O)C3)CC2)C1` (stereo not drawn) [P-172, 4-((2-(4-(2-(4-(5-Acetyl-3-(7-(difluoromethyl)-6-(1-methyl-1H-pyrazol-4-yl)-3,4-dihydroquinolin-1(2H)-yl)-4,5,6,7-tetrahydro-1H-pyrazolo[4,3-c]pyridin-1-yl)piperidin-1-yl)-2-oxoethyl)morpholin-2-yl)ethyl)amino)-2-(2,6-dioxopiperidin-3-yl)isoindoline-1,3-dione], in assay [1] (CellTiter-Glo (Table 3)), the IC50 was 56.9 nM. Further, the inhibition at 0.01 µM in assay [2] (setting [4]) is 20 to 50%.

For the compound `CNC(=O)N1CCc2c(c(N3CCCc4cc(-c5cnn(CC(=O)NCCOCCOCCOCCOCCOCCNc6cccc7c6C(=O)N(C6CCC(=O)NC6=O)C7=O)c5)c(C(F)F)cc43)nn2C2CCOCC2)C1` (stereo not drawn) [P-025, 3-(7-(Difluoromethyl)-6-(1-(20-((2-(2,6-dioxopiperidin-3-yl)-1,3-dioxoisoindolin-4-yl)amino)-2-oxo-6,9,12,15,18-pentaoxa-3-azaicosyl)-1H-pyrazol-4-yl)-3,4-dihydroquinolin-1(2H)-yl)-N-methyl-1-(tetrahydro-2H-pyran-4-yl)-1,4,6,7-tetrahydro-5H-pyrazolo[4,3-c]pyridine-5-carboxamide], the IC50 in assay [1] (CellTiter-Glo (Table 2)) amounted to 1250 nM. In addition, the inhibition at 0.01 µM in assay [2] (setting [3]) is under 20%.

Take `CNC(=O)N1CCc2c(c(N3CCCc4cc(-c5cnn(CC(=O)NCCOCCOCCOCCC(=O)N[C@H](C(=O)N6C[C@H](O)C[C@H]6C(=O)NCc6ccc(-c7scnc7C)cc6)C(C)(C)C)c5)c(C(F)F)cc43)nn2C2CCOCC2)C1` [P-077, 3-(7-(Difluoromethyl)-6-(1-((S)-17-((2S,4R)-4-hydroxy-2-((4-(4-methylthiazol-5-yl)benzyl)carbamoyl)pyrrolidine-1-carbonyl)-18,18-dimethyl-2,15-dioxo-6,9,12-trioxa-3,16-diazanonadecyl)-1H-pyrazol-4-yl)-3,4-dihydroquinolin-1(2H)-yl)-N-methyl-1-(tetrahydro-2H-pyran-4-yl)-1,4,6,7-tetrahydro-5H-pyrazolo[4,3-c]pyridine-5-carboxamide]: the IC50 in assay [1] (CellTiter-Glo (Table 3)) was over 10000 nM. Besides, the inhibition at 0.01 µM in assay [2] (setting [4]) is under 20%.

Turning to `CNC(=O)N1CCc2c(c(N3CCCc4cc(-c5cnn(CC(=O)NCCC(=O)N[C@H](C(=O)N6C[C@H](O)C[C@H]6C(=O)NCc6ccc(-c7scnc7C)cc6)C(C)(C)C)c5)c(C(F)F)cc43)nn2C2CCOCC2)C1` [P-045, 3-(7-(Difluoromethyl)-6-(1-(2-((3-(((S)-1-((2S,4R)-4-hydroxy-2-((4-(4-methylthiazol-5-yl)benzyl)carbamoyl)pyrrolidin-1-yl)-3,3-dimethyl-1-oxobutan-2-yl)amino)-3-oxopropyl)amino)-2-oxoethyl)-1H-pyrazol-4-yl)-3,4-dihydroquinolin-1(2H)-yl)-N-methyl-1-(tetrahydro-2H-pyran-4-yl)-1,4,6,7-tetrahydro-5H-pyrazolo[4,3-c]pyridine-5-carboxamide], the IC50 in assay [1] (CellTiter-Glo (Table 2)) was over 10000 nM. For the same compound, the inhibition at 0.01 µM in assay [2] (setting [3]) is under 20%.

Regarding `CNC(=O)N1CCc2c(c(N3CCCc4cc(-c5cnn(C)c5)c(C(F)F)cc43)nn2C2CCN(C(=O)COCCOCCOCCOCCOCC(=O)N[C@H](C(=O)N3C[C@H](O)C[C@H]3C(=O)NCc3ccc(-c4scnc4C)cc3)C(C)(C)C)CC2)C1` [P-071, 3-(7-(Difluoromethyl)-6-(1-methyl-1H-pyrazol-4-yl)-3,4-dihydroquinolin-1(2H)-yl)-1-(1-((S)-19-((2S,4R)-4-hydroxy-2-((4-(4-methylthiazol-5-yl)benzyl)carbamoyl)pyrrolidine-1-carbonyl)-20,20-dimethyl-17-oxo-3,6,9,12,15-pentaoxa-18-azahenicosanoyl)piperidin-4-yl)-N-methyl-1,4,6,7-tetrahydro-5H-pyrazolo[4,3-c]pyridine-5-carboxamide], in assay [1] (CellTiter-Glo (Table 3)), the IC50 was determined as 107 nM. Besides, the inhibition at 0.01 µM in assay [2] (setting [4]) lay within 20 to 50%.

The compound `CNC(=O)N1CCc2c(c(N3CCCc4cc(-c5cnn(CC(=O)NCCOCCOCCOCCOCCNc6cccc7c6C(=O)N(C6CCC(=O)NC6=O)C7=O)c5)c(C(F)F)cc43)nn2C2CCOCC2)C1` (stereo not drawn) [P-024, 3-(7-(Difluoromethyl)-6-(1-(17-((2-(2,6-dioxopiperidin-3-yl)-1,3-dioxoisoindolin-4-yl)amino)-2-oxo-6,9,12,15-tetraoxa-3-azaheptadecyl)-1H-pyrazol-4-yl)-3,4-dihydroquinolin-1(2H)-yl)-N-methyl-1-(tetrahydro-2H-pyran-4-yl)-1,4,6,7-tetrahydro-5H-pyrazolo[4,3-c]pyridine-5-carboxamide] gave an IC50 in assay [1] (CellTiter-Glo (Table 2)) of 524 nM. Further, the inhibition at 0.01 µM in assay [2] (setting [3]) was under 20%.

In turn, `CNC(=O)N1CCc2c(c(N3CCCc4cc(-c5cnn(C)c5)c(C(F)F)cc43)nn2C2CCN(C(=O)CCNc3cccc4c3C(=O)N(C3CCC(=O)NC3=O)C4=O)CC2)C1` (stereo not drawn) [P-014, 3-(7-(Difluoromethyl)-6-(1-methyl-1H-pyrazol-4-yl)-3,4-dihydroquinolin-1(2H)-yl)-1-(1-(3-((2-(2,6-dioxopiperidin-3-yl)-1,3-dioxoisoindolin-4-yl)amino)propanoyl)piperidin-4-yl)-N-methyl-1,4,6,7-tetrahydro-5H-pyrazolo[4,3-c]pyridine-5-carboxamide] had an IC50 in assay [1] (CellTiter-Glo (Table 2)) of over 10000 nM. In assay [2] (setting [3]), the inhibition at 0.01 µM is under 20%.

Take `CNC(=O)N1CCc2c(c(N3CCCc4cc(-c5cnn(CC(=O)NCCOCCOCCOCCNc6ccc7c(c6)C(=O)N(C6CCC(=O)NC6=O)C7=O)c5)c(C(F)F)cc43)nn2C2CCOCC2)C1` (stereo not drawn) [P-030, 3-(7-(Difluoromethyl)-6-(1-(14-((2-(2,6-dioxopiperidin-3-yl)-1,3-dioxoisoindolin-5-yl)amino)-2-oxo-6,9,12-trioxa-3-azatetradecyl)-1H-pyrazol-4-yl)-3,4-dihydroquinolin-1(2H)-yl)-N-methyl-1-(tetrahydro-2H-pyran-4-yl)-1,4,6,7-tetrahydro-5H-pyrazolo[4,3-c]pyridine-5-carboxamide]: half-maximal inhibition in assay [1] (CellTiter-Glo (Table 2)) (IC50) required 669 nM. Further, in assay [2] (setting [3]), the inhibition at 0.01 µM is under 20%.

In assay [1] (CellTiter-Glo (Table 3)), `CC(=O)N1CCc2c(c(N3CCCc4cc(-c5cnn(C)c5)c(C(F)F)cc43)nn2C2CCN(C(=O)CCCCNc3cccc4nnn(C5CCC(=O)NC5=O)c(=O)c34)CC2)C1` (stereo not drawn) [P-155, 3-(5-((5-(4-(5-acetyl-3-(7-(difluoromethyl)-6-(1-methyl-1H-pyrazol-4-yl)-3,4-dihydroquinolin-1(2H)-yl)-4,5,6,7-tetrahydro-1H-pyrazolo[4,3-c]pyridin-1-yl)piperidin-1-yl)-5-oxopentyl)amino)-4-oxobenzo[d][1,2,3]triazin-3(4H)-yl)piperidine-2,6-dione] gave an IC50 of 22.3 nM. In addition, the inhibition at 0.01 µM in assay [2] (setting [4]) fell in the range of 50 to 80%.

`CNC(=O)N1CCc2c(c(N3CCCc4cc(-c5cnn(C)c5)c(C(F)F)cc43)nn2C2CCN(C(=O)CCCCCCNc3ccc4c(c3)C(=O)N(C3CCC(=O)NC3=O)C4=O)CC2)C1` (stereo not drawn) [P-006, 3-(7-(difluoromethyl)-6-(1-methyl-1H-pyrazol-4-yl)-3,4-dihydroquinolin-1(2H)-yl)-1-(1-(7-((2-(2,6-dioxopiperidin-3-yl)-1,3-dioxoisoindolin-5-yl)amino)heptanoyl)piperidin-4-yl)-N-methyl-1,4,6,7-tetrahydro-5H-pyrazolo[4,3-c]pyridine-5-carboxamide]: the midpoint of inhibition in assay [1] (CellTiter-Glo (Table 2)), the IC50, lay at 3.2 nM. Besides, the inhibition at 0.01 µM in assay [2] (setting [3]) was over 80%.
